According to PubChem BioAssay (NCI):
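Compound exposure: 48 hours, 5 concentrations, 96-well plates. Definition used: TGI = concentration required for complete inhibition of growth.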

Experiments:
Test in all cases: growth of human tumour cells (NCI), 48 h
HCT-15 colon = system: HCT-15 colon
NCI-H522 lung = system: NCI-H522 lung
BT-549 breast = system: BT-549 breast
LOX IMVI melanoma = system: LOX IMVI melanoma
OVCAR-3 ovarian = system: OVCAR-3 ovarian
SK-OV-3 ovarian = system: SK-OV-3 ovarian
T-47D breast = system: T-47D breast
U251 CNS = system: U251 CNS
UACC-257 melanoma = system: UACC-257 melanoma
K-562 leukemia = system: K-562 leukemia
MCF7 breast = system: MCF7 breast
IGROV1 ovarian = system: IGROV1 ovarian
SNB-19 CNS = system: SNB-19 CNS
786-0 renal = system: 786-0 renal
SK-MEL-5 melanoma = system: SK-MEL-5 melanoma
NCI-H23 lung = system: NCI-H23 lung
OVCAR-4 ovarian = system: OVCAR-4 ovarian
SW-620 colon = system: SW-620 colon
NCI-H226 lung = system: NCI-H226 lung
TK-10 renal = system: TK-10 renal
RPMI-8226 leukemia = system: RPMI-8226 leukemia
HOP-92 NSCLC = system: HOP-92 NSCLC
M14 melanoma = system: M14 melanoma
HOP-62 NSCLC = system: HOP-62 NSCLC
ACHN renal = system: ACHN renal
SK-MEL-2 melanoma = system: SK-MEL-2 melanoma
HCT-116 colon = system: HCT-116 colon
DU-145 prostate = system: DU-145 prostate
MALME-3M melanoma = system: MALME-3M melanoma
A549 NSCLC = system: A549 NSCLC
UACC-62 melanoma = system: UACC-62 melanoma
SF-295 CNS = system: SF-295 CNS
NCI/ADR-RES ovarian = system: NCI/ADR-RES ovarian
SN12C renal = system: SN12C renal
MOLT-4 leukemia = system: MOLT-4 leukemia
PC-3 prostate = system: PC-3 prostate
KM12 colon = system: KM12 colon
HCC-2998 colon = system: HCC-2998 colon
CCRF-CEM leukemia = system: CCRF-CEM leukemia
CAKI-1 renal = system: CAKI-1 renal
A498 renal = system: A498 renal
HT29 colon = system: HT29 colon
SK-MEL-28 melanoma = system: SK-MEL-28 melanoma
OVCAR-5 ovarian = system: OVCAR-5 ovarian
UO-31 renal = system: UO-31 renal
EKVX NSCLC = system: EKVX NSCLC
MDA-MB-435 = system: MDA-MB-435
COLO 205 colon = system: COLO 205 colon
SF-539 CNS = system: SF-539 CNS
SR leukemia = system: SR leukemia
MDA-N = system: MDA-N
OVCAR-8 ovarian = system: OVCAR-8 ovarian
MDA-MB-231 breast = system: MDA-MB-231 breast
RXF 393 renal = system: RXF 393 renal
SF-268 CNS = system: SF-268 CNS

With `CC1(C)C[C@H]2[C@H](O)C(CO)=C3C(=O)[C@@H](O)[C@]3(C)[C@H]2C1` the TGI (HCT-15 colon) was greater than 100 µM, the TGI (NCI-H522 lung) was greater than 100 µM and the TGI (BT-549 breast) was greater than 100 µM. For the same compound, the TGI (LOX IMVI melanoma) was greater than 100 µM, the TGI (OVCAR-3 ovarian) was greater than 100 µM and the TGI (SK-OV-3 ovarian) was greater than 100 µM. The TGI (T-47D breast) was greater than 100 µM, the TGI (U251 CNS) was greater than 100 µM and the TGI (UACC-257 melanoma) was greater than 100 µM. The TGI (K-562 leukemia) was greater than 100 µM, the TGI (MCF7 breast) was greater than 100 µM and the TGI (IGROV1 ovarian) was greater than 100 µM. It also gave a TGI (SNB-19 CNS) greater than 100 µM, a TGI (786-0 renal) greater than 100 µM and a TGI (SK-MEL-5 melanoma) greater than 100 µM. It also gave a TGI (NCI-H23 lung) greater than 100 µM, a TGI (OVCAR-4 ovarian) greater than 100 µM and a TGI (SW-620 colon) greater than 100 µM. It also gave a TGI (NCI-H226 lung) greater than 100 µM, a TGI (TK-10 renal) greater than 100 µM and a TGI (RPMI-8226 leukemia) greater than 100 µM. The TGI (HOP-92 NSCLC) was greater than 100 µM, the TGI (M14 melanoma) was greater than 100 µM and the TGI (HOP-62 NSCLC) was greater than 100 µM. The TGI (ACHN renal) was greater than 100 µM, the TGI (SK-MEL-2 melanoma) was greater than 100 µM and the TGI (HCT-116 colon) was greater than 100 µM. The TGI (DU-145 prostate) was greater than 100 µM, the TGI (MALME-3M melanoma) was greater than 100 µM and the TGI (A549 NSCLC) was greater than 100 µM. The TGI (UACC-62 melanoma) was greater than 100 µM, the TGI (SF-295 CNS) was greater than 100 µM and the TGI (NCI/ADR-RES ovarian) was greater than 100 µM. For the same compound, the TGI (SN12C renal) was greater than 100 µM, the TGI (MOLT-4 leukemia) was 53.3 µM and the TGI (PC-3 prostate) was greater than 100 µM. It also gave a TGI (KM12 colon) greater than 100 µM, a TGI (HCC-2998 colon) greater than 100 µM and a TGI (CCRF-CEM leukemia) of 84 µM. It also gave a TGI (CAKI-1 renal) greater than 100 µM, a TGI (A498 renal) greater than 100 µM and a TGI (HT29 colon) greater than 100 µM. For the same compound, the TGI (SK-MEL-28 melanoma) was greater than 100 µM, the TGI (OVCAR-5 ovarian) was greater than 100 µM and the TGI (UO-31 renal) was greater than 100 µM. For the same compound, the TGI (EKVX NSCLC) was greater than 100 µM, the TGI (MDA-MB-435) was greater than 100 µM and the TGI (COLO 205 colon) was greater than 100 µM. For the same compound, the TGI (SF-539 CNS) was greater than 100 µM, the TGI (SR leukemia) was greater than 100 µM and the TGI (MDA-N) was greater than 100 µM. It also gave a TGI (OVCAR-8 ovarian) greater than 100 µM, a TGI (MDA-MB-231 breast) greater than 100 µM and a TGI (RXF 393 renal) greater than 100 µM. It also gave a TGI (SF-268 CNS) greater than 100 µM.
